Like-named read-outs stand apart in the source and are kept apart here.
Assays:
patients with T2D and RI = assay type: in vivo, human; conditions: for Model-adjusted change from baseline A1C, LS mean (SE): ANCOVA
Method: Therapies for type 2 diabetes mellitus (T2DM) with renal impairment (RI) are limited and may require dose adjustment. This 52-week randomized, double blind, active controlled, Phase III parallel group study examined efficacy/safety of QW Albi injections (30 mg uptitrated to 50 mg if needed) vs daily Sita in patients with T2D and RI (eGFR≧15 and <90 mL/min/1.73 m^2) and A1C 7-10% on lifestyle (11% of subjects) or metformin (Met), thiazoldinedone (TZD), sulfonylureas (SU), or any combination (89% of patients). […] Primary endpoint was A1C change at week 26 for Albi vs Sita (noninferiority with subsequent superiority analysis). Eligible subjects were men or non pregnant, nonlactating women, 18 years of age or older, with a historical diagnosis of T2DM who were experiencing inadequate glycemic control on their current regimen of diet and exercise or their antidiabetic therapy of metformin, TZD, SU, or any combination of these OAD medications.

[1] = in vivo, cited from earlier work
[2] = Week 26, Moderate RI (eGFR 30-59)
[3] = Week 26, Severe RI (eGFR 15-29)

Albiglutide: recombinant fusion protein of 2 copies of modified human GLP-1 (fragment 7-36(A8G)) genetically fused in series to recombinant human serum albumin
Week 26 A1C, mean (patients with T2D and RI; Any RI (eGFR 15-89)): 7.27%
Week 26 A1C, mean (patients with T2D and RI; Mild RI (eGFR 60-89 mL/min/1.73 m2)): 7.23%
Week 26 A1C, mean (patients with T2D and RI; Moderate RI (eGFR 30-59)): 7.37%
A1C change at week 26, Albi vs Sita, superiority analysis (patients with T2D and RI; P=0.0003): superior
Week 26 A1C, mean (patients with T2D and RI; Severe RI (eGFR 15-29)): 6.97%
A1C<7% achieved, patients (patients with T2D and RI; Week 26): 42.6%
FPG change (patients with T2D and RI; Week 26): -25.6 mg/dL
weight change (patients with T2D and RI; Week 26): -0.8 kg
Model-adjusted change from baseline A1C, LS mean (SE) (patients with T2D and RI; Week 26, Any RI (eGFR 15-89)): −0.83%
Model-adjusted change from baseline A1C, LS mean (SE) (patients with T2D and RI; Week 26, Mild RI (eGFR 60-89)): −0.80%
Model-adjusted change from baseline A1C, LS mean (SE) (patients with T2D and RI; [2]): −0.83%
Model-adjusted change from baseline A1C, LS mean (SE) (patients with T2D and RI; [3]): −1.08%
Change from baseline A1C, mean (SD) (patients with T2D and RI; Week 26, Any RI (eGFR 15-89)): −0.82%
Difference of LS means from sitagliptin (95% CI), A1C (patients with T2D and RI; Week 26, Any RI (eGFR 15-89)): 0.32%
Difference of LS means from sitagliptin (95% CI), A1C (patients with T2D and RI; Week 26, Any RI (eGFR 15-89), listed as Albi): −0.32%
Change from baseline A1C, mean (SD) (patients with T2D and RI; Week 26, Mild RI (eGFR 60-89)): −0.72%
Difference of LS means from sitagliptin (95% CI), A1C (patients with T2D and RI; Week 26, Mild RI (eGFR 60-89)): −0.13%
Change from baseline A1C, mean (SD) (patients with T2D and RI; [2]): −0.88%
Difference of LS means from sitagliptin (95% CI), A1C (patients with T2D and RI; [2]): −0.53%
Change from baseline A1C, mean (SD) (patients with T2D and RI; [3]): −1.08%
Difference of LS means from sitagliptin (95% CI), A1C (patients with T2D and RI; [3]): −0.47%
Adverse Event rate: diarrhea (patients with T2D and RI; in vivo): 8.8%
Adverse Event rate: nausea (patients with T2D and RI; in vivo): 4.8%
Adverse Event rate: vomiting (patients with T2D and RI; in vivo): 1.6%
Anti-Albi antibody rate (patients with T2D and RI; in vivo): 2.8%
Anti-Albi antibody, neutralizing (patients with T2D and RI; in vivo): 0%
Hypoglycemia rate (patients with T2D and RI; in vivo): 20.5%
Hypoglycemia, severe (number) (patients with T2D and RI; in vivo): 0
Injection site reaction rate (patients with T2D and RI; in vivo): 6.8%
On-therapy adverse event: Constipation (patients with T2D and RI; in vivo): 15 (6.0) n (%)
On-therapy adverse event: Diarrhea (patients with T2D and RI; in vivo): 22 (8.8) n (%)
On-therapy adverse event: Hypertension (patients with T2D and RI; in vivo): 10 (4.0) n (%)
On-therapy adverse event: Nasopharyngitis (patients with T2D and RI; in vivo): 13 (5.2) n (%)
On-therapy adverse event: Upper respiratory tract infection (patients with T2D and RI; in vivo): 9 (3.6) n (%)
On-therapy adverse event: Urinary tract infection (patients with T2D and RI; in vivo): 8 (3.2) n (%)
half-life [1]: approximately 5 days
half-life ([1]; listed as SEQ ID NO:1): about 5 days
